What was measured:
P. berghei ANKA = assay: Four day suppressive test in P. berghei-infected mice; format: in vivo, P. berghei (BALB/c mice)
[1] = Experimental complexation with iron; format: binding; details: ligand–iron(III), stoichiometry 1, text
[2] = In vitro hemolysis on human red blood cells; format: cell-based; details: red blood cells (2% final suspension), % Haemolysis

binding constant [1]: about 6300 M^–1
Compound: CCN(CC)CCCC(C)Nc1ccnc2cc(Cl)ccc12 (stereo not shown) [CQ, chloroquine]
parasitemia reduction percentage (P. berghei ANKA; 20 mg kg^–1, day 4): 99.80%
%P, percentage of parasitemia (P. berghei ANKA; 20 mg kg^–1 for 4 days, day 4 post-infection, n = 6): 0.2%
hemolysis at 45 min, 1 mM [2]: 7.4%

Source: publication PMC8908514 (ACS Omega, 2022)
